In brackets after ≈: the same amount, converted by molar mass.
The compounds below were run on K562/ADR (assay: Leukemia cell growth inhibition, MTT, 72 h). Details: Homo sapiens.
Type: cell-based
Source text: (§1) Leukemia cell lines: leukemia cell lines: K562/adr (drug-resistant, chronic myeloid leukemia, CML), NB4 (acute promyelocytic leukemia, AML), Kasumi-1 (acute myeloid leukemia M2 type, AML-M2), Jurkat (acute lymphoblastic leukemia, ALL), all of which were donated by Cancer Research Institute of Zhejiang University, China; and H9 (acute lymphoblastic leukemia, ALL), which was purchased from China Center for Type Culture Collection.
(§2) 6000 well-growing leukemia cells were obtained and inoculated into wells of a 96-well cell culture plate. […] On the next day, the 1-oxo/acylated-14-acylated oridonin derivatives of different concentrations were added and mixed uniformly. The plate was placed in a carbon dioxide cell incubator (5% CO2) at 37° C. and was incubated for 72 hours. Then the viable cell concentration was determined by MTT method.

Row | IC50 [µg/mL] | IC90 [µg/mL] | Structure (SMILES)
1 | 0.44 (≈ 0.878 µM) | 1.98 (≈ 3.95 µM) | C=C1C(=O)[C@]23[C@H](OC(=O)c4ccc(Cl)cc4)[C@H]1CC[C@H]2[C@@]12CO[C@@]3(O)[C@@H](O)[C@@H]1C(C)(C)CCC2=O [BS-OR-010]

Each compound was assayed on Kasumi-1 (assay: Leukemia cell growth inhibition, MTT, 72 h). Details: Homo sapiens.
Type: cell-based
Source text: as §1, §2

Row | IC50 [µg/mL] | IC90 [µg/mL] | Structure (SMILES)
2 | 0.57 (≈ 1.14 µM) | 1.76 (≈ 3.51 µM) | C=C1C(=O)[C@]23[C@H](OC(=O)c4ccc(Cl)cc4)[C@H]1CC[C@H]2[C@@]12CO[C@@]3(O)[C@@H](O)[C@@H]1C(C)(C)CCC2=O [BS-OR-010]

Each compound was assayed on H9 (assay: Leukemia cell growth inhibition, MTT, 72 h). Details: Homo sapiens, H9; 72 h, MTT.
Type: cell-based, human
Source text: as §1, §2

Row | IC50 [µg/mL] | IC90 [µg/mL] | Structure (SMILES)
3 | 0.38 (≈ 0.759 µM) | 0.96 (≈ 1.92 µM) | C=C1C(=O)[C@]23[C@H](OC(=O)c4ccc(Cl)cc4)[C@H]1CC[C@H]2[C@@]12CO[C@@]3(O)[C@@H](O)[C@@H]1C(C)(C)CCC2=O [BS-OR-010]

Each compound was assayed on Jurkat (assay: Leukemia cell growth inhibition, MTT, 72 h). Details: Homo sapiens, Jurkat; 72 h, MTT.
Type: cell-based, human
Source text: as §1, §2

Row | IC50 [µg/mL] | IC90 [µg/mL] | Structure (SMILES)
4 | 0.48 (≈ 0.958 µM) | 6.06 (≈ 12.1 µM) | C=C1C(=O)[C@]23[C@H](OC(=O)c4ccc(Cl)cc4)[C@H]1CC[C@H]2[C@@]12CO[C@@]3(O)[C@@H](O)[C@@H]1C(C)(C)CCC2=O [BS-OR-010]

Same assay, conditions: as compared with oridonin

Row | Structure (SMILES) | anti-Jurkat cell line activity increased [fold]
5 | C=C1C(=O)[C@]23[C@H](OC(=O)c4ccc(Cl)cc4)[C@H]1CC[C@H]2[C@@]12CO[C@@]3(O)[C@@H](O)[C@@H]1C(C)(C)CCC2=O [BS-OR-010] | ~4

These compounds were tested on NB4 (assay: Leukemia cell growth inhibition, MTT, 72 h). Details: Homo sapiens, NB-4; 72 h, MTT.
Type: cell-based, human
Source text: as §1, §2

Row | IC50 [µg/mL] | IC90 [µg/mL] | Structure (SMILES)
6 | 0.15 (≈ 0.299 µM) | 0.95 (≈ 1.9 µM) | C=C1C(=O)[C@]23[C@H](OC(=O)c4ccc(Cl)cc4)[C@H]1CC[C@H]2[C@@]12CO[C@@]3(O)[C@@H](O)[C@@H]1C(C)(C)CCC2=O [BS-OR-010]

What follows are compounds tested on RPMI 8226 (assay: Multiple myeloma cell growth inhibition, MTT, 72 h). Details: Homo sapiens.
Type: cell-based
Experimental: Multiple myeloma cell lines: RPMI8226 (multiple myeloma), purchased from Fuxiang Bio-tech Co. Ltd., Shanghai, China.
as §2, with “well-growing” for “well-growing leukemia”, “and” for “and was”

Row | IC50 [µg/mL] | IC90 [µg/mL] | Structure (SMILES)
7 | 0.28 (≈ 0.559 µM) | 1.78 (≈ 3.55 µM) | C=C1C(=O)[C@]23[C@H](OC(=O)c4ccc(Cl)cc4)[C@H]1CC[C@H]2[C@@]12CO[C@@]3(O)[C@@H](O)[C@@H]1C(C)(C)CCC2=O [BS-OR-010]

Each compound was assayed on CNE (assay: Solid tumor cell growth inhibition, MTT, 72 h). Details: Homo sapiens, CNE; 72 h, MTT.
Type: cell-based, human
Experimental: (§3) 6000 well-growing human solid tumor cells were obtained and inoculated into wells of a 96-well cell culture plate. The culture medium was DMEM High Glucose cell culture medium containing 10% fetal bovine serum. The plate was placed in a carbon dioxide cell incubator (5% CO2) at 37° C. and incubated for 24 hours. After added with 1-oxo/acylated-14-acylated oridonin derivatives of different concentration and mixed uniformly, the plate was placed in a carbon dioxide cell incubator (5% CO2) at 37° C. and incubated for 72 hours. Then the viable cell concentration was determined by MTT method.

Row | IC50 [µg/mL] | IC90 [µg/mL] | Structure (SMILES)
8 | 1.39 (≈ 2.77 µM) | 5.94 (≈ 11.9 µM) | C=C1C(=O)[C@]23[C@H](OC(=O)c4ccc(Cl)cc4)[C@H]1CC[C@H]2[C@@]12CO[C@@]3(O)[C@@H](O)[C@@H]1C(C)(C)CCC2=O [BS-OR-010]

What follows are compounds tested on Hela (assay: Solid tumor cell growth inhibition, MTT, 72 h). Details: Homo sapiens, HeLa; 72 h, MTT.
Type: cell-based, human
Experimental: as §3

Row | IC50 [µg/mL] | IC90 [µg/mL] | Structure (SMILES)
9 | 1.49 (≈ 2.97 µM) | 5.31 (≈ 10.6 µM) | C=C1C(=O)[C@]23[C@H](OC(=O)c4ccc(Cl)cc4)[C@H]1CC[C@H]2[C@@]12CO[C@@]3(O)[C@@H](O)[C@@H]1C(C)(C)CCC2=O [BS-OR-010]

These compounds were tested on Hep-2 (assay: Solid tumor cell growth inhibition, MTT, 72 h). Details: Homo sapiens, HEp-2; 72 h, MTT.
Type: cell-based, human
Experimental: as §3

Row | IC50 [µg/mL] | IC90 [µg/mL] | Structure (SMILES)
10 | 1.8 (≈ 3.59 µM) | 9.11 (≈ 18.2 µM) | C=C1C(=O)[C@]23[C@H](OC(=O)c4ccc(Cl)cc4)[C@H]1CC[C@H]2[C@@]12CO[C@@]3(O)[C@@H](O)[C@@H]1C(C)(C)CCC2=O [BS-OR-010]

What follows are compounds tested on MGC-803 (assay: Solid tumor cell growth inhibition, MTT, 72 h). Details: Homo sapiens, MGC-803; 72 h, MTT.
Type: cell-based, human
Experimental: as §3

Row | IC50 [µg/mL] | IC90 [µg/mL] | Structure (SMILES)
11 | 0.68 (≈ 1.36 µM) | 9.04 (≈ 18 µM) | C=C1C(=O)[C@]23[C@H](OC(=O)c4ccc(Cl)cc4)[C@H]1CC[C@H]2[C@@]12CO[C@@]3(O)[C@@H](O)[C@@H]1C(C)(C)CCC2=O [BS-OR-010]

What follows are compounds tested on A549 (assay: Solid tumor cell growth inhibition, MTT, 72 h). Details: Homo sapiens.
Type: cell-based
Experimental: as §3

Row | IC50 [µg/mL] | IC90 [µg/mL] | Structure (SMILES)
12 | 2.83 (≈ 5.65 µM) | 7.29 (≈ 14.6 µM) | C=C1C(=O)[C@]23[C@H](OC(=O)c4ccc(Cl)cc4)[C@H]1CC[C@H]2[C@@]12CO[C@@]3(O)[C@@H](O)[C@@H]1C(C)(C)CCC2=O [BS-OR-010]

Each compound was assayed on Becap-37 (assay: Solid tumor cell growth inhibition, MTT, 72 h). Details: Homo sapiens.
Type: cell-based
Experimental: as §3

Row | IC50 [µg/mL] | IC90 [µg/mL] | Structure (SMILES)
13 | 1.03 (≈ 2.06 µM) | 3.72 (≈ 7.43 µM) | C=C1C(=O)[C@]23[C@H](OC(=O)c4ccc(Cl)cc4)[C@H]1CC[C@H]2[C@@]12CO[C@@]3(O)[C@@H](O)[C@@H]1C(C)(C)CCC2=O [BS-OR-010]

These compounds were tested on CaEs-17 (assay: Solid tumor cell growth inhibition, MTT, 72 h). Details: Homo sapiens, CaEs17.
Type: cell-based
Experimental: as §3

Row | IC50 [µg/mL] | IC90 [µg/mL] | Structure (SMILES)
14 | 1.1 (≈ 2.2 µM) | 5.51 (≈ 11 µM) | C=C1C(=O)[C@]23[C@H](OC(=O)c4ccc(Cl)cc4)[C@H]1CC[C@H]2[C@@]12CO[C@@]3(O)[C@@H](O)[C@@H]1C(C)(C)CCC2=O [BS-OR-010]

The compounds below were run on Hep G2 (assay: Solid tumor cell growth inhibition, MTT, 72 h). Details: Homo sapiens, HepG2.
Type: cell-based
Experimental: as §3

Row | IC50 [µg/mL] | IC90 [µg/mL] | Structure (SMILES)
15 | 0.99 (≈ 1.98 µM) | 11.7 (≈ 23.4 µM) | C=C1C(=O)[C@]23[C@H](OC(=O)c4ccc(Cl)cc4)[C@H]1CC[C@H]2[C@@]12CO[C@@]3(O)[C@@H](O)[C@@H]1C(C)(C)CCC2=O [BS-OR-010]

Each compound was assayed on MG-63 (assay: Solid tumor cell growth inhibition, MTT, 72 h). Details: Homo sapiens.
Type: cell-based
Experimental: as §3

Row | IC50 [µg/mL] | IC90 [µg/mL] | Structure (SMILES)
16 | 0.46 (≈ 0.918 µM) | 0.95 (≈ 1.9 µM) | C=C1C(=O)[C@]23[C@H](OC(=O)c4ccc(Cl)cc4)[C@H]1CC[C@H]2[C@@]12CO[C@@]3(O)[C@@H](O)[C@@H]1C(C)(C)CCC2=O [BS-OR-010]

What follows are compounds tested on PANC-1 (assay: Solid tumor cell growth inhibition, MTT, 72 h). Details: Homo sapiens.
Type: cell-based
Experimental: as §3

Row | IC50 [µg/mL] | IC90 [µg/mL] | Structure (SMILES)
17 | 1.86 (≈ 3.71 µM) | 10.7 (≈ 21.3 µM) | C=C1C(=O)[C@]23[C@H](OC(=O)c4ccc(Cl)cc4)[C@H]1CC[C@H]2[C@@]12CO[C@@]3(O)[C@@H](O)[C@@H]1C(C)(C)CCC2=O [BS-OR-010]

These compounds were tested on PC-3 (assay: Solid tumor cell growth inhibition, MTT, 72 h). Details: Homo sapiens.
Type: cell-based
Experimental: as §3

Row | IC50 [µg/mL] | IC90 [µg/mL] | Structure (SMILES)
18 | 1.66 (≈ 3.31 µM) | 4.77 (≈ 9.52 µM) | C=C1C(=O)[C@]23[C@H](OC(=O)c4ccc(Cl)cc4)[C@H]1CC[C@H]2[C@@]12CO[C@@]3(O)[C@@H](O)[C@@H]1C(C)(C)CCC2=O [BS-OR-010]

Each compound was assayed on RKO (assay: Solid tumor cell growth inhibition, MTT, 72 h). Details: Homo sapiens.
Type: cell-based
Experimental: as §3

Row | IC50 [µg/mL] | IC90 [µg/mL] | Structure (SMILES)
19 | 0.46 (≈ 0.918 µM) | 0.95 (≈ 1.9 µM) | C=C1C(=O)[C@]23[C@H](OC(=O)c4ccc(Cl)cc4)[C@H]1CC[C@H]2[C@@]12CO[C@@]3(O)[C@@H](O)[C@@H]1C(C)(C)CCC2=O [BS-OR-010]

These compounds were tested on SK-OV-3 (assay: Solid tumor cell growth inhibition, MTT, 72 h). Details: Homo sapiens, SK-OV-3; 72 h, MTT; read-out: IC50 SK-OV-3.
Type: cell-based
Experimental: as §3

Row | IC50 [µg/mL] | Structure (SMILES)
20 | 1.66 (≈ 3.31 µM) | C=C1C(=O)[C@]23[C@H](OC(=O)c4ccc(Cl)cc4)[C@H]1CC[C@H]2[C@@]12CO[C@@]3(O)[C@@H](O)[C@@H]1C(C)(C)CCC2=O [BS-OR-010]

Same assay, conditions: Homo sapiens, SK-OV-3; 72 h, MTT; read-out: IC90 SK-OV-3

Row | IC90 [µg/mL] | Structure (SMILES)
21 | 4.77 (≈ 9.52 µM) | C=C1C(=O)[C@]23[C@H](OC(=O)c4ccc(Cl)cc4)[C@H]1CC[C@H]2[C@@]12CO[C@@]3(O)[C@@H](O)[C@@H]1C(C)(C)CCC2=O [BS-OR-010]

Each compound was assayed on U87-MG (assay: Solid tumor cell growth inhibition, MTT, 72 h). Details: Homo sapiens, U-87 MG.
Type: cell-based
Experimental: as §3

Row | IC50 [µg/mL] | IC90 [µg/mL] | Structure (SMILES)
22 | 0.94 (≈ 1.88 µM) | 2.78 (≈ 5.55 µM) | C=C1C(=O)[C@]23[C@H](OC(=O)c4ccc(Cl)cc4)[C@H]1CC[C@H]2[C@@]12CO[C@@]3(O)[C@@H](O)[C@@H]1C(C)(C)CCC2=O [BS-OR-010]
